In patent publication US20210369768A1, “METAL DI-AMINO ACID CHELATES OR METAL TRI-AMINO ACID CHELATES” (Balchem Corporation, priority 2020, published 2021):
Peptide text beside a SMILES is read from it.

What was measured:
[1] = Stability of the complex in solution via 1H NMR; type: physicochemical; conditions: 1H NMR in D2O
Excerpt: At 72 hrs, an observable upfield shift occurs, which may be due to isomer formation. There is no observable change in proton integration. NMR taken in D2O.

[2] = test system: Caco-2 cells
Description: (§1) Magnesium uptake colorimetric assay kits were purchased from BioVision (Catalog #385-100). […] HEK-293 (ATCC® CRL-1573TM) cells, Caco-2 (ATCC® HTB-37TM) cells, and Dulbecco's Modified Eagle Medium (ATCC® 30-2002) were purchased from ATCC. Penicillin streptomycin (10,000 U/mL), fetal bovine serum (FBS), and trypsin/EDTA (0.25%) were purchased from Gibco™.
(§2) Caco-2 cells were cultured from Liquid N2 frozen stocks and rapidly thawed to RT using a water bath at 37° C.; cryopreservation media was removed with a micropipette after cells were pelleted via centrifugation for 8-10 minutes at 125 g. Cells were resuspended in 1 mL of room temperature DMEM and cultured in 14 mLs DMEM (total volume of 15 mLs) with a seeding density of 3.6×10^4 cells/cm^2 in a T-75 cm^2 culture flask and left to grow in an incubator at 37° C. and 5% CO2. Cells were sub-cultured at 90% confluency, and sub-culturing occurred a minimum of five times before use in uptake assays. When ready-to-use cultures were at 90% confluency, old DMEM media was pipetted off and 3-4 mLs of trypsin was added—the trypsinized culture flask was placed back in the incubator for 5-10 minutes to detach cells. Once detached, the culture flask was rinsed with 6-8 mLs of fresh DMEM to neutralize the trypsin -cells for uptake assays were counted utilizing a DeNovix CellDrop™. Once counted, cells were pelleted down via centrifugation at 125 g for 8-10 minutes, and the neutralized trypsin-media supernatant was pipetted off. Cells were resuspended in 5 mLs magnesium assay buffer for cellular uptake assay.
(§3) Cellular uptake data was collected at incubation times of 1 hr (required kit incubation time), 4 hrs (the amount of time required for uptake in the GI), and 24 hrs (the amount of time required for a complex to clear the GI).
(§4) Kinetics were evaluated utilizing the slope of the line of uptake of the complex in the Caco-2 cells.

[3] = test system: Caco-2 cells; test: Cellular uptake of magnesium complexes in Caco-2 cells (BioVision colorimetric magnesium uptake assay kit); conditions: Example 12, FIG. 72
Description: as §1, §2, §3, §4

## NCC(=O)NCC(=O)NCC(=O)[O-].[Mg+2].[OH-] [Mg(G3), magnesium 2-[[2-[(2-aminoacetyl)amino]acetyl]amino]acetic acid chelate] (H-Gly-Gly-Gly-OH)
[1]
  stability in solution: considerable stability for periods up to 72 hrs
[2]
  cellular uptake at 24 hrs: cell saturation

## NCC(=O)[O-].NCC(=O)[O-].[Mg+2] [MgBG, magnesium bisglycinate, reference compound]
[3]
  cellular uptake in CaCo-2 cell line relative to other magnesium complexes: significantly less cellular uptake than Mg(G3)

## magnesium diglycine [MgG2]
[3]
  cellular uptake in CaCo-2 cell line relative to other magnesium complexes: relatively linear uptake in the CaCo-2 cell line similar to that of both magnesium chloride (MgCl2) and magnesium bisglycinate (MgBG)
